Data as given in patent US20090221690A1, “Pharmaceutical Composition for the Prevention/Treatment of Bone Disorders and a Process for the Preparation Thereof” (COUNCIL OF SCIENTIFIC AND INDUSTRIAL RESEARCH, priority 2006, published 2009).

Columns and labels:
[1] = system: osteoblasts; assay: Quantification of alkaline phosphatase activity in osteoblasts; type: cell-based, Balb/c mouse; set-up: alkaline phosphatase activity: unit not given here; conditions: 48 h; for alkaline phosphatase activity: Control 1.87 ± 0.20, Mean±SEM; for expression of alkaline phosphatase vs vehicle control: 10^−11 M to 10^−5 M
Experimental: (§1) Neonatal mouse calvarial cell cultures are prepared as described previously (Endocrinology 139:4743) using slight modification. Briefly, for primary osteoblast cell cultures, frontal and parietal bones from Balb/c mouse neonates (1-3 day old) are digested in 0.1% collagenase/0.1% dispase in α-MEM to obtain 5 sequential digests. The second through fifth digests are combined and grown to confluence at 37° C. and 5% CO2 in air in α-MEM, supplemented with 10% fetal bovine serum (FBS), 2 mM glutamine, 100 U/ml penicillin-streptomycin, Non-essential amino acid solution and sodium pyruvate. The effect of test agents is analysed using the following tests:
p-Nitrophenol phosphate is a colorless substrate which is hydrolysed to colored p-nitrophenol by alkaline phosphatase enzyme. Rate of hydrolysis of p-nitrophenol phosphate is proportional to enzyme present in sample. […] Findings reveal that all the five pure compounds nos.

[2] = system: primary osteoblasts; assay: MTT assay for cell proliferation, primary osteoblast cell culture; type: cell-based, Balb/c mouse; conditions: for Osteoblast cell proliferation (MTT assay) / osteoblast cell proliferation vs vehicle control: 24 h; for Osteoblast cell proliferation (MTT assay): Vehicle 0.60 ± 0.06, Mean±SEM; for osteoblast cell proliferation vs vehicle control: 10^−11 M to 10^−5 M
Experimental: as §1
MTT assay is a common assay used for assessing cell proliferation where tetrazolium salt is reduced to formazone crystals by the mitochondrial dehydrogenase enzyme, which are then dissolved in DMSO. More the number of metabolically active cells more will be the formazone crystals formed. Briefly, osteoblast cells are maintained in α-MEM medium supplemented with 10% FCS and 1% antibiotic solution in 96 well plate. When the cells attain 40% confluency, they are treated in presence or absence of test agents in 2% FCS supplemented media for 24 h. Twenty-four hours thereafter, MTT salt is added to the cells. After 4 h, the formazone crystals formed are dissolved in DMSO and readings taken at wavelength of 570 nm.
This assay is based on the ability of viable cells to reduce tetrazolium salt to form formazone crystals by mitochondrial dehydrogenase enzyme. In MTT assay, osteoblasts are maintained in α-MEM medium supplemented with 10% FCS and 1% antibiotic solution in 96 well plate. When the cells attain 40% confluency, they are treated in presence or absence of test agents in 2% FCS supplemented media for 24 h. Twenty-four hours thereafter, MTT salt is added to the cells. After 4 h, the formazone crystals formed due to reduction of tetrazolium salt by mitochondrial dehydrogenase enzyme are dissolved in DMSO and readings taken at wavelength of 570 nm. All the five pure compounds nos.

[3] = system: osteoblast cells; assay: Quantification of mineralization in osteoblasts (Alizarin red, acetic acid extraction); type: cell-based, Balb/c mouse; conditions: osteoblasts cultured 7 days; vs vehicle control; FIG. 13
Experimental: as §1
For quantification of mineralization which is measured with increased deposition of nascent calcium in osteoblast cells, cells were cultured in the presence of test compounds for 7 days and stained with Alizarin red. Alizarin red was extracted with acetic acid and the intensity of stain, which is directly proportion to the extent of mineralisation, is read at 405 nm.

[4] = system: osteoblasts cultured on sterile bovine bone slices; assay: Mineralisation by osteoblasts cultured on bovine bone slices, Alizarin red staining; type: cell-based, Balb/c mouse; conditions: osteoblasts on bovine bone slices, 15 days; alone or in combination; FIGS. 14 and 15
Experimental: as §1
(§2) Cells are seeded onto sterile bovine bone slices in 96-well plate and treated with the culture medium containing α-MEM, supplemented with 10% fetal bovine serum, 2 mM glutamine, 100 U/ml penicillin-streptomycin, non-essential amino acid solution, sodium pyruvate, 10 mM P-glycerophosphate and 50 μg/ml ascorbic acid. Culture medium is changed every alternate day. At termination of the culture, cells are washed twice with PBS, fixed in cold 70% ethanol for 1 h and washed once with water and stained with 40 mM Alizarin red (pH 4.7) for 30 min and then washed in PBS to remove excess staining.
as §2, with “In case of osteoblasts” for “Cells are”, “slices, the cells are cultured” for “slices”, “in A-MEM” for “and treated with the culture medium containing α-MEM,”, “p-glycerophosphate” for “P-glycerophosphate”, “acid in the absence or presence of test compounds or their mixtures.” for “acid.”, “culture after 15 days,” for “culture,”

[5] = system: osteoblasts; assay: Osteogenic activity of isolated compounds based on alkaline phosphatase expression, MTT and mineralisation in vitro; type: cell-based
Text: K051, K052, K054, K080, K082 (isolated from n-butanol soluble fraction) and K095 (isolated from chloroform soluble fraction) (FIGS. 11-15; Tables 10-11).

[6] = system: Ishikawa (human uterine glandular epithelial carcinoma) cell line; assay: MTT proliferation assay in Ishikawa cell line; type: cell-based; conditions: 10 nM and 1 μM; Ishikawa cells; FIG. 2
[7] = system: MCF-7 (human cancer breast) cell line; assay: MTT proliferation assay in MCF-7 cell line; type: cell-based; conditions: 10 nM and 1 μM; MCF-7 cells; FIG. 2
[8] = system: rat fetal bones; assay: Total alkaline phosphatase activity in cultured rat fetal bones; type: cell-based; set-up: dose or concentration left out as unconfirmed; conditions: rat fetal bones cultured for 48 h
Experimental: […] The homogenate is centrifuged at 5000 rpm for 10 min at 4° C. The supernatant is used as the enzyme solution. The activity of alkaline phosphatase is measured using ALP kit (Roche, Germany) and p-nitrophenol phosphate as substrate.

## COc1cc(O)c2c(=O)c(-c3ccc(O)cc3O)coc2c1 [Compound K051, 2′,4′,5-trihydroxy-7-methoxy isoflavones]
[1]; 10^−5 M
  alkaline phosphatase activity: 3.26 ± 0.07
[1]; 10^−6 M
  alkaline phosphatase activity: 3.24 ± 0.09
[1]; 10^−7 M
  alkaline phosphatase activity: 3.23 ± 0.11
[1]; 10^−8 M
  alkaline phosphatase activity: 3.41 ± 0.12
[1]; 10^−9 M
  alkaline phosphatase activity: 3.50 ± 0.07
[1]; 10^−10 M
  alkaline phosphatase activity: 3.59 ± 0.08
[1]
  expression of alkaline phosphatase vs vehicle control: increased expression of alkaline phosphatase
[1]; 10^−11 M
  alkaline phosphatase activity: 3.63 ± 0.04
[2]; 10^−5 M
  Osteoblast cell proliferation (MTT assay): 1.32 ± 0.05
[2]; 10^−6 M
  Osteoblast cell proliferation (MTT assay): 1.34 ± 0.09
[2]; 10^−7 M
  Osteoblast cell proliferation (MTT assay): 1.33 ± 0.01
[2]; 10^−8 M
  Osteoblast cell proliferation (MTT assay): 1.32 ± 0.04
[2]; 10^−9 M
  Osteoblast cell proliferation (MTT assay): 1.03 ± 0.03
[2]; 10^−10 M
  Osteoblast cell proliferation (MTT assay): 0.92 ± 0.05
[2]
  osteoblast cell proliferation vs vehicle control: enhanced osteoblast cell proliferation
[2]; 10^−11 M
  Osteoblast cell proliferation (MTT assay): 0.85 ± 0.05
[3]
  mineralisation quantified by alizarin extraction method: enhanced mineralisation
[4]
  intensity of alizarin red staining (rate of new bone formation): increased intensity of alizarin red staining
[5]
  osteogenic activity: promising osteogenic activity

## COc1ccc2c(=O)c(-c3ccc(O)cc3)coc2c1 [Compound K052, 4′-hydroxy, 7-methoxy-isoflavone]
[1]; 10^−5 M
  alkaline phosphatase activity: 2.29 ± 0.24
[1]; 10^−6 M
  alkaline phosphatase activity: 3.01 ± 0.09
[1]; 10^−7 M
  alkaline phosphatase activity: 3.05 ± 0.10
[1]; 10^−8 M
  alkaline phosphatase activity: 3.20 ± 0.06
[1]; 10^−9 M
  alkaline phosphatase activity: 3.07 ± 0.10
[1]; 10^−10 M
  alkaline phosphatase activity: 3.01 ± 0.26
[1]
  expression of alkaline phosphatase vs vehicle control: increased expression of alkaline phosphatase
[1]; 10^−11 M
  alkaline phosphatase activity: 3.17 ± 0.06
[2]; 10^−5 M
  Osteoblast cell proliferation (MTT assay): 1.19 ± 0.01
[2]; 10^−6 M
  Osteoblast cell proliferation (MTT assay): 1.86 ± 0.13
[2]; 10^−7 M
  Osteoblast cell proliferation (MTT assay): 1.70 ± 0.15
[2]; 10^−8 M
  Osteoblast cell proliferation (MTT assay): 1.73 ± 0.09
[2]; 10^−9 M
  Osteoblast cell proliferation (MTT assay): 1.70 ± 0.08
[2]; 10^−10 M
  Osteoblast cell proliferation (MTT assay): 1.43 ± 0.05
[2]
  osteoblast cell proliferation vs vehicle control: enhanced osteoblast cell proliferation
[2]; 10^−11 M
  Osteoblast cell proliferation (MTT assay): 1.45 ± 0.23
[2]; order K052, K080, K095, K051, K054
  relative potency in osteoblast proliferation (MTT): most potent
[3]
  mineralisation quantified by alizarin extraction method: enhanced mineralisation
[4]
  intensity of alizarin red staining (rate of new bone formation): increased intensity of alizarin red staining
[5]
  osteogenic activity: promising osteogenic activity

## COc1ccc(-c2coc3cc(O)ccc3c2=O)cc1O [Compound K054, 7, 3′-dihydroxy-4′-methoxyisoflavone]
[1]; 10^−5 M
  alkaline phosphatase activity: 2.65 ± 0.09
[1]; 10^−6 M
  alkaline phosphatase activity: 3.25 ± 0.07
[1]; 10^−7 M
  alkaline phosphatase activity: 3.32 ± 0.06
[1]; 10^−8 M
  alkaline phosphatase activity: 3.35 ± 0.03
[1]; 10^−9 M
  alkaline phosphatase activity: 3.32 ± 0.09
[1]; 10^−10 M
  alkaline phosphatase activity: 3.22 ± 0.12
[1]
  expression of alkaline phosphatase vs vehicle control: increased expression of alkaline phosphatase
[1]; 10^−11 M
  alkaline phosphatase activity: 3.01 ± 0.25
[2]; 10^−5 M
  Osteoblast cell proliferation (MTT assay): 1.40 ± 0.02
[2]; 10^−6 M
  Osteoblast cell proliferation (MTT assay): 1.24 ± 0.01
[2]; 10^−7 M
  Osteoblast cell proliferation (MTT assay): 1.26 ± 0.07
[2]; 10^−8 M
  Osteoblast cell proliferation (MTT assay): 1.24 ± 0.06
[2]; 10^−9 M
  Osteoblast cell proliferation (MTT assay): 1.06 ± 0.04
[2]; 10^−10 M
  Osteoblast cell proliferation (MTT assay): 0.88 ± 0.09
[2]
  osteoblast cell proliferation vs vehicle control: enhanced osteoblast cell proliferation
[2]; 10^−11 M
  Osteoblast cell proliferation (MTT assay): 0.75 ± 0.06
[3]
  mineralisation quantified by alizarin extraction method: enhanced mineralisation
[4]
  intensity of alizarin red staining (rate of new bone formation): increased intensity of alizarin red staining
[5]
  osteogenic activity: promising osteogenic activity

## COc1ccc(-c2coc3cc(O)ccc3c2=O)cc1 [Compound K080, 7-hydroxy, 4′-methoxy-isoflavone]
[1]; 10^−5 M
  alkaline phosphatase activity: 3.45 ± 0.06
[1]; 10^−6 M
  alkaline phosphatase activity: 3.40 ± 0.02
[1]; 10^−7 M
  alkaline phosphatase activity: 3.46 ± 0.06
[1]; 10^−8 M
  alkaline phosphatase activity: 3.30 ± 0.01
[1]; 10^−9 M
  alkaline phosphatase activity: 3.33 ± 0.02
[1]; 10^−10 M
  alkaline phosphatase activity: 3.27 ± 0.08
[1]
  expression of alkaline phosphatase vs vehicle control: increased expression of alkaline phosphatase
[1]; 10^−11 M
  alkaline phosphatase activity: 3.38 ± 0.02
[2]; 10^−5 M
  Osteoblast cell proliferation (MTT assay): 1.49 ± 0.03
[2]; 10^−6 M
  Osteoblast cell proliferation (MTT assay): 1.55 ± 0.05
[2]; 10^−7 M
  Osteoblast cell proliferation (MTT assay): 1.43 ± 0.09
[2]; 10^−8 M
  Osteoblast cell proliferation (MTT assay): 1.47 ± 0.02
[2]; 10^−9 M
  Osteoblast cell proliferation (MTT assay): 1.58 ± 0.09
[2]; 10^−10 M
  Osteoblast cell proliferation (MTT assay): 1.35 ± 0.03
[2]
  osteoblast cell proliferation vs vehicle control: enhanced osteoblast cell proliferation
[2]; 10^−11 M
  Osteoblast cell proliferation (MTT assay): 1.25 ± 0.09
[3]
  mineralisation quantified by alizarin extraction method: enhanced mineralisation
[4]
  intensity of alizarin red staining (rate of new bone formation): increased intensity of alizarin red staining
[5]
  osteogenic activity: promising osteogenic activity

## COc1ccc(-c2c(C)oc3cc(O)ccc3c2=O)cc1 [Compound K082, 2-methyl, 7-hydroxy, 4′-methoxy isoflavone]
[3]
  mineralisation quantified by alizarin extraction method: enhanced mineralisation
[4]
  intensity of alizarin red staining (rate of new bone formation): increased intensity of alizarin red staining
[5]
  osteogenic activity: promising osteogenic activity

## O=C(c1ccc(OCCN2CCCCC2)cc1)c1c(-c2ccc(O)cc2)sc2cc(O)ccc12 [Raloxifene]
[6]
  proliferation: increased proliferation was observed
[7]
  proliferation: increased proliferation was observed in only the Ishikawa cell line

## O=P([O-])([O-])OC(CO)CO.[Na+].[Na+] [Sodium β-glycerophosphate]
[8]
  Total alkaline phosphatase activity, percent increase (percent of vehicle control group): 28%
[8]; listed as sodium p-glycerophosphate
  Total alkaline phosphatase activity, percent increase (percent of vehicle control group): 28%
